Laboratory results from US5912258A, “Thiadiazoleamide derivative and anti-ulcer drug” (Shiseido Co., Ltd., priority 1998, dated 1999).

Assays:
gastric mucosa = experiment: PD: Gastric Mucosal Integrity Test (gastric mucosal potential difference); format: in vivo, Male Crj:SD rats; set-up: key: 5: Same as the control with no recognizable damage at all.; 4: Though a slight PD-decreasing tendency suggesting a slight possibility of mucosal damage is found, there is no problem.; 3: Though a weak decrease in PD and a possibility of a weak mucosal damage is recognized, there is no substantial problem.; 2: Medium degree of decrease in PD is found and a mucosal damage is recognized.; 1: Heavy degree of decrease in PD is found and a remarkable mucosal damage is recognized; conditions: rat, 100 mg/kg into the chamber, 60 minutes
Protocol: PD: Gastric Mucosal Integrity Test
In this case, since the sample compound has a necrotizing effect, it is inappropriate as an anti-ulcer medicament.
Therefore, the gastric mucosal potential difference (PD), which reflects the integrity of the gastric mucosa, is measured so as to confirm that the sample compound has no damaging effect on gastric mucosa, which is toxicity at gastric mucosal level.
Male Crj:SD rats (7 to 8-week-old) were fasted overnight, but allowed free access to water, and then, under urethane anesthesia (1.25 g/kg, i.p.), fixed to a cork board on its back. The abdomen of each rat was incised, and a small incision was made in the forestomach. Then, the inside of the stomach was washed with physiological saline heated at 37° C. From the forestomach, along the greater curvature thereof, the stomach was incised without damaging blood vessels. After the height of the cork board was adjusted on a jack, the stomach was mounted on ex vivo chamber. The area of the gastric mucosa exposed to the inside of this chamber was 2.5 cm^2. The inside of the chamber was perfused with physiological saline warmed at 37° C. by micro tube pump. By using an agar bridge containing 3M KCl, the potential difference between the chamber and the abdominal cavity was measured by a PD meter. Here, the rectal temperature was measured to control the body temperature during the experiment. After the PD was sufficiently stabilized, the perfusate was stopped and then 100 mg/10 ml/kg of the sample compound dissolved or suspended in an aqueous solution of 0.5% sodium carboxymethylcellulose or 0.05% Tween 80 was administered into the chamber, while PD was recorded for 60 minutes. To a control, the vehicle was administered.
The change in PD during 60 minutes after the administration of 100 mg/kg of the sample compound was collectively studied and, with reference to the positive control, classified into 5 levels as follows:
5: Same as the control with no recognizable damage at all.
3: Though a weak decrease in PD and a possibility of a weak mucosal damage is recognized, there is no substantial problem.
2: Medium degree of decrease in PD is found and a mucosal damage is recognized.
1: Heavy degree of decrease in PD is found and a remarkable mucosal damage is recognized.

[1] = MTT: Cell Damaging and Protecting Effect Test; format: cell-based, male Japanese White rabbit; conditions: rabbit, gastric mucosa cells, 10^-4 M, smaller value is better, read-out: MTT: cell damaging rate
From the text: MTT: Cell Damaging and Protecting Effect Test
It is confirmed that there is no toxicity in cell level. Those having toxicity in cell level are inappropriate as an anti-ulcer drug.
A male Japanese White rabbit (2.5 to 3 kg) was anesthetized to death by Nembutal™ and, immediately thereafter, its stomach was removed. The greater curvature of the stomach was incised so as to remove the stomach contents therefrom. After the mucosal surface was washed with HBSS (Hank's Balanced Salt Solution), the stomach in ice-cooled HBSS was transferred to a laboratory. Then, after the pyloric antrum was removed, the gastric corpus mucosa was separated by a spatula and then minced into 2 to 3 mm pieces in BME (Basal Medium Eagle). Thereafter, these pieces were shaken at 120 to 130 cycles/minute for 15 minutes at 37° C. in BME 60 ml containing 280 U/ml of dispase and 30 to 50 U/mil of collagenase. Here, the concentration of collagenase was appropriately changed for each lot in view of the state of cells. The pieces were washed twice with EBSS (Earle's Balanced Salt Solution) containing 1 mM of EDTA and then shaken in MEM (Minimum Essential Medium) containing 1 mM of EDTA at 37° C. for 5 minutes. Subsequently, they were shaken in the dispase and collagenase having the same concentrations as those mentioned above for 15 minutes so as to remove the supernatant and then further shaken at 37° C. for 50 to 60 minutes at 120 to 130 cycles/minute. Then, after being washed twice with HBSS, Ham F12 containing 2% of Ultrocer G™ was used to attain the concentration of 1×10^6 cells/ml. Thus formed suspension was dispensed in each well of a 96-well plate by 200 μl. The plate was incubated in the atmosphere composed of 5% CO2 and 95% air at 37° C. for three days so as to attain a confluent state and then subjected to MTT assay.
The sample compound was dissolved in DMSO so as to attain a concentration of 10^-2 M and then diluted with HBSS containing 2% of Ultrocer G™ so as to attain a final concentration of 10^-4 M. To each group, which 8 wells were used for, 10 μl of MTT reagent was added immediately after 100 μl of the medium in each well was exchanged for same volume of the resulting solution of the sample compound. After being incubated in an atmosphere composed of 5% CO2 and 95% air at 37° C. for 4 hours, thus formed solution was centrifuged and then its supernatant was discarded. Subsequently, 100 μl of 100% ethanol was added to the residue so as to dissolve MTT formazan. Then, the absorbance (OD: 570 to 630) was measured by a microplate reader. This method utilizes a phenomenon in which MTT is changed to MTT formazan only by mitochondria of living cells so as to change color.
The cell damaging or cell protecting effect of the sample compound at the final concentration of 10^-4 M was expressed as cell damaging rate (%) as follows:
cell damaging rate (%)={1-(absorbance in sample group/absorbance in control group)}×100
Accordingly, the smaller value is better in the cell damaging rate.

Slc:ICR mice = tested on: Slc:ICR mice; set-up: species or system Male Slc:ICR mice; conditions: mouse, in vivo
Protocol: AT: Single Dose Toxicity Pretest
Male Slc:ICR mice (5-week-old) were used. Each group has 3 to 5 mice and each mouse was fasted, but allowed free access to water, for 4 to 5 hours from 9 a.m. in the test day. Then, 2,000 mg/10 ml/kg of the sample compound dissolved or suspended in an aqueous solution of 0.5% sodium carboxymethylcellulose was orally administered thereto. To a control, only the vehicle was administered. […] The body weight was measured before and after the fasting as well as at the same time everyday. The dead animals were immediately subjected to autopsy and their organs were observed by naked eyes. Also, the living animals were sacrificed with ether or carbon dioxide one week after the administration and then their organs were observed by naked eyes.
The toxicity at the single dose of 2,000 mg/kg of the sample compound was expressed as being classified into 5 levels.
5: Mortality rate is 0%; no toxicity is found at all both in behavior and organs.
4: Mortality rate is 0%; while no toxicity is found in organs, slight toxicity is observed in behavior and body weight increase.
3: While there is a dead animal (though not all the animals are dead), no toxicity is found in organs.
2: Regardless of whether there is a dead animal or not, toxicity is found in organs.
1: All the animals are dead.

Compound	PD: change in gastric mucosal potential difference (5 levels) (gastric mucosa)	cytotoxicity at 4 h, 100 µM [1] [%]	AT: toxicity at the single dose (5 levels) (Slc:ICR mice)
CCN(CC)CCSc1nnc(NC(=O)c2ccc(C(C)C)cc2)s1 [Example 1, 2-(4-isopropylbenzoyl)amino-5-diethylaminoethylthio-1,3,4-thiadiazole]	3	22	
CC(C)c1ccc(C(=O)Nc2nnc(SCCN(C(C)C)C(C)C)s2)cc1 [Example 2, 2-(4-isopropylbenzoyl)amino-5-diisopropylaminoethylthio-1,3,4-thiadiazole]	5		5
CCN(CC)CCSc1nnc(NC(=O)c2ccc(C(C)(C)C)cc2)s1 [Example 4, 2-(4-tert-butylbenzoyl)amino-5-diethylaminoethylthio-1,3,4-thiadiazole]	3	22	
CCN(CC)CCSc1nnc(NC(=O)c2ccc(OC/C=C(\C)CCC=C(C)C)cc2)s1 [Example 10, 2-(4-geranyloxybenzoyl)amino-5-diethylaminoethylthio-1,3,4-thiadiazole]	5	17	5
CC(C)=CCC/C(C)=C/COc1ccc(C(=O)Nc2nnc(SCCN3CCCCC3)s2)cc1 [Example 12, 2-(4-geranyloxybenzoyl)amino-5-piperidinoethylthio-1,3,4-thiadiazole]	5	12	5
CC(C)=CCC/C(C)=C/COc1ccc(C(=O)Nc2nnc(SCc3ccccn3)s2)cc1 [Example 14, 2-(4-geranyloxybenzoyl)amino-5-(2-pyridylmethyl)thio-1,3,4-thiadiazole]	5	-13	5
CCSc1nnc(NC(=O)c2ccc(OC/C=C(\C)CCC=C(C)C)cc2)s1 [Example 15, 2-(4-geranyloxybenzoyl)amino-5-ethylthio-1,3,4-thiadiazole]	5	1	5
